The values below come from ChEMBL document CHEMBL4483862, “Open-source discovery of chemical leads for next-generation chemoprotective antimalarials” (2018).

Where only a bound is given, the exact number is not on record here.

This experiment concerns Plasmodium berghei. The experiment is described as follows: Luciferase/luciferin-expressing antifolate-resistant parasites were used to infect a culture of HepG2 cells that were pre-incubated with compounds. Infected hepatocytes emit light due to the luciferase reaction. Assay results are presented as the percent inhibition of light emission compared to control. […]. Type of experiment: functional. The following applies: sporozoite; for IC90: read-out: LUCIFERASE INFECTION ASSAY - IC90.

[1] abbreviates: read-out: LUCIFERASE INFECTION ASSAY - IC50.

A word on the IC50: it is the concentration that gives 50% inhibition. By IC90 is commonly meant the point of the concentration-response curve where the effect stands at 90%. Take `Cc1ccc(-c2oc3ccccc3c(=O)c2O)cc1`: the 90% effect concentration (IC90) is above 13.1 µM. Further, the half-inhibitory concentration (IC50) under setting [1] is above 13.1 µM.
As to `CC(C)(C)c1ccc(C2SCC(=O)N2c2ccc(Cl)cc2)cc1` (stereo not given), the IC90 was 6.66 µM. For the same compound, the IC50 (PBLUC_HILL_SLOPE 4.61, PBLUC_R_SQUARED 0.0595, read-out: LUCIFERASE INFECTION ASSAY - IC50) came to 4.13 µM.
Regarding `CC(C)OC(=O)Nc1cc(Cl)cc(Cl)c1`, the 90% effect concentration (IC90) was above 13.3 µM. For the same compound, the IC50 under setting [1] is above 13.3 µM.
Take `COc1ccc(-n2ncc(N3CCC(=O)CC3)c(Cl)c2=O)cc1`: the IC90 was above 9.89 µM. Also, the IC50 under setting [1] was above 9.89 µM.
Consider `COc1ccc(OCCN2CCN(c3ccc(S(=O)(=O)NC(C)C)cn3)CC2)cc1`, for which the IC90 was above 10 µM. Moreover, under setting [1], the IC50 was above 10 µM.
On to `CC(C)c1noc(CCC(=O)Nc2ccc(F)cc2F)n1`, for which the IC90 is above 10 µM. For the same compound, the IC50 under setting [1] was above 10 µM.
As for `CCCCCc1ccc(-c2nnc(SCC(C)=O)[nH]2)cc1`, the concentration for an effect of 90% (IC90) is above 10.9 µM. Also, the IC50 under setting [1] was above 10.9 µM.
`Cc1ccc(-c2csc3[nH]c(CNC(C)c4ccc5c(c4)CCCC5)nc(=O)c23)s1` (stereo not given): the IC90 is above 10 µM. Moreover, the IC50 (FFLUC_HILL_SLOPE 13.5, FFLUC_R_SQUARED 0.414, HEPG2TOX_HILL_SLOPE 0.395, HEPG2TOX_R_SQUARED 0.365, read-out: LUCIFERASE INFECTION ASSAY - IC50) was above 10 µM.
On to `CN1CCCN(c2ccc(NC(=O)OCC(F)(F)F)cc2F)CC1`, for which the IC90 was above 10 µM. Also, under setting [1], the IC50 was above 10 µM.
Consider `CC(=O)Nc1ccc(Nc2nc3cc(S(=O)(=O)Nc4cccc(Cl)c4)ccc3o2)cc1`, for which the IC90 worked out at 9.97 µM. Also, the IC50 (HEPG2TOX_HILL_SLOPE 0.957, HEPG2TOX_R_SQUARED 0.862, PBLUC_HILL_SLOPE 2.24, PBLUC_R_SQUARED 0.74, read-out: LUCIFERASE INFECTION ASSAY - IC50) is 3.74 µM.
Consider `O=C(NCc1ccc(Oc2ccc(F)cc2)cc1)C1Cc2ccccc2O1` (stereo not given), for which the IC90 is 3.84 µM. Also, under “HEPG2TOX_HILL_SLOPE 1.58, HEPG2TOX_R_SQUARED 0.911, PBLUC_HILL_SLOPE 12.2, PBLUC_R_SQUARED 0.351, read-out: LUCIFERASE INFECTION ASSAY - IC50”, the IC50 stood at 3.21 µM.
Turning to `CC(NC(=O)c1cc(C2CC2)nn1-c1ccccc1)c1ccc(F)cc1F` (stereo not given), the IC90 is above 10 µM. In addition, the IC50 (FFLUC_HILL_SLOPE 3.16, FFLUC_R_SQUARED 0.345, read-out: LUCIFERASE INFECTION ASSAY - IC50) is above 10 µM.
On to `CCCOc1ccc2ccccc2c1CN(C)c1cncc(-n2cccn2)n1`, for which the IC90 was above 10 µM. Besides, the concentration for half-maximal inhibition (IC50) under setting [1] is above 10 µM.
On to `Cc1ccc(C2(C(F)(F)F)NC(=O)c3ccc(OC(C)C)cc3O2)cc1` (stereo not given), for which the concentration for an effect of 90% (IC90) was above 10 µM. The IC50 under setting [1] is 3.99 µM.
For the compound `COc1ccccc1-c1nc2ccc(NC(=O)Nc3ccc(OC(F)(F)F)cc3)cn2n1`, the IC90 was above 10 µM. In addition, the IC50 (PBLUC_HILL_SLOPE 3.5, PBLUC_R_SQUARED 0.389, read-out: LUCIFERASE INFECTION ASSAY - IC50) was determined as 7.37 µM.
Consider `CCN(c1ccc(NC(=O)c2cnccn2)cc1)C(C)C`, for which the 90% effect concentration (IC90) is above 10 µM. Also, the IC50 (FFLUC_HILL_SLOPE 1.65, FFLUC_R_SQUARED 0.318, PBLUC_HILL_SLOPE 0.412, PBLUC_R_SQUARED 0.204, read-out: LUCIFERASE INFECTION ASSAY - IC50) is above 10 µM.
For the compound `COc1cc(-c2cnc3cnc(-c4ccc(N)nc4)cn23)ccc1O`, the IC90 was 4.1 µM. The IC50 (HEPG2TOX_HILL_SLOPE 2.67, HEPG2TOX_R_SQUARED 0.695, PBLUC_HILL_SLOPE 3.91, PBLUC_R_SQUARED 0.793, read-out: LUCIFERASE INFECTION ASSAY - IC50) is 2.33 µM.
Consider `CC(C)c1ccc(-c2cnc3sc(NCc4cccnc4)nn23)cc1`, for which the IC90 is above 9.44 µM. Also, the 50% inhibitory concentration (IC50) under setting [1] is above 9.44 µM.
On to `CCOC(=O)c1nc(N(CCc2ccccc2)C(=O)c2cccnc2SC)sc1C`, for which the IC90 was above 10 µM. Moreover, the IC50 under setting [1] is above 10 µM.
Consider `COc1ccc(O)c(C(=O)c2c[nH]c(C(=O)N3CCCC3)c2)c1`, for which the concentration for an effect of 90% (IC90) was above 10 µM. Moreover, the IC50 (HEPG2TOX_HILL_SLOPE 3.52, HEPG2TOX_R_SQUARED 0.659, PBLUC_HILL_SLOPE 0.979, PBLUC_R_SQUARED 0.275, read-out: LUCIFERASE INFECTION ASSAY - IC50) was above 10 µM.
`CN(Cc1ccccc1)S(=O)(=O)N1CCC(C(O)(c2ccccc2)c2ccccc2)CC1`: the IC90 is 9.51 µM. Moreover, where the note is “PBLUC_HILL_SLOPE 2.67, PBLUC_R_SQUARED 0.571, read-out: LUCIFERASE INFECTION ASSAY - IC50”, the IC50 came out at 4.18 µM.
Consider `CNc1nc2cnc(Nc3cccc(C(C)C)c3)cc2n1Cc1ccco1`, for which the IC90 is above 10 µM. Besides, the IC50 under setting [1] is above 10 µM.
Consider `COc1cc(-c2cnc3sc(NCc4cccs4)nn23)ccc1O`, for which the IC90 was above 9.21 µM. In addition, the IC50 under setting [1] was above 9.21 µM.
Regarding `COc1ccc(-c2cnc3cnc(-c4ccccc4N(C)C)cn23)cc1`, the 90% effect concentration (IC90) is 0.409 µM. The IC50 (HEPG2TOX_HILL_SLOPE 0.622, HEPG2TOX_R_SQUARED 0.863, PBLUC_HILL_SLOPE 8.14, PBLUC_R_SQUARED 0.832, read-out: LUCIFERASE INFECTION ASSAY - IC50) worked out at 0.312 µM.
In the case of `C=C(C)[C@@H]1CC=C(CN2CCC3(CC2)C(=O)N(Cc2cccnc2)C(=O)N3CCc2ccccc2)CC1`, the IC90 is above 6.62 µM. In addition, the concentration for half-maximal inhibition (IC50) (HEPG2TOX_HILL_SLOPE 8.2, HEPG2TOX_R_SQUARED 0.91, PBLUC_HILL_SLOPE 3.93, PBLUC_R_SQUARED 0.652, read-out: LUCIFERASE INFECTION ASSAY - IC50) came out at 3.82 µM.
For the compound `CCOC(=O)c1cnn(-c2c(Cl)cc(Cl)cc2Cl)c1-c1ccccc1`, the IC90 was above 8.34 µM. Besides, under setting [1], the IC50 was above 8.34 µM.
On to `Cn1c(NCc2ccccc2F)nc2cnc(-c3ccc4c(c3)OCO4)cc21`, for which the IC90 turned out to be 5.21 µM. In addition, the IC50 (HEPG2TOX_HILL_SLOPE 10, HEPG2TOX_R_SQUARED 0.935, PBLUC_HILL_SLOPE 10.5, PBLUC_R_SQUARED 0.0559, read-out: LUCIFERASE INFECTION ASSAY - IC50) was found to be 4.23 µM.
On to `CC(C)(C)c1ccc(CSCCNC2=CC(=O)CC(c3ccc4c(c3)OCO4)C2)cc1` (stereo not given), for which the IC90 is above 7.54 µM. For the setting “HEPG2TOX_HILL_SLOPE 3.72, HEPG2TOX_R_SQUARED 0.93, PBLUC_HILL_SLOPE 2.67, PBLUC_R_SQUARED 0.216, read-out: LUCIFERASE INFECTION ASSAY - IC50”, the IC50 was determined as 3.87 µM.
Consider `CC(C)(C(=O)NCc1ccccc1Br)n1cc(-c2ccc(OCCN3CCCC3)cc2)cn1`, for which the IC90 is above 10 µM. In addition, under setting [1], the IC50 is above 10 µM.
With `O=C(NCCNc1ccnc2cc(Cl)ccc12)c1ccccc1F`, the IC90 is 8.82 µM. For the same compound, under setting [1], the IC50 worked out at 2.31 µM.
With `OCc1ccc(-c2cnc3ccc(-c4ccoc4)nn23)cc1`, the IC90 is above 10 µM. Further, under setting [1], the IC50 was determined as 4.97 µM.
On to `COc1cc(C2NCC(c3ccccc3Cl)c3c2[nH]c2ccccc32)ccc1OCc1cccc(C(F)(F)F)c1` (stereo not given), for which the IC90 was above 10 µM. The IC50 (FFLUC_HILL_SLOPE 97, FFLUC_R_SQUARED 0.0371, HEPG2TOX_HILL_SLOPE 1.2, HEPG2TOX_R_SQUARED 0.293, PBLUC_HILL_SLOPE 8.25, PBLUC_R_SQUARED 0.22, read-out: LUCIFERASE INFECTION ASSAY - IC50) was 8.46 µM.
Consider `CN(C)C(CNc1ncnc2sc(-c3ccccc3)cc12)c1ccco1` (stereo not given), for which the IC90 is above 10 µM. Besides, the IC50 (PBLUC_HILL_SLOPE 12.3, PBLUC_R_SQUARED 0.199, read-out: LUCIFERASE INFECTION ASSAY - IC50) stood at 9.76 µM.
For the compound `Cc1nn2c(nc(N3CCCC3)c3ccccc32)c1C=C1C(=O)NC(=S)NC1=O`, the IC90 was determined as 5.31 µM. Besides, the IC50 (HEPG2TOX_HILL_SLOPE 1.87, HEPG2TOX_R_SQUARED 0.941, PBLUC_HILL_SLOPE 2.44, PBLUC_R_SQUARED 0.519, read-out: LUCIFERASE INFECTION ASSAY - IC50) stood at 2.16 µM.
In the case of `CCOC(=O)c1c(-c2ccc(OC)cc2)csc1NC(=O)CSc1nc(C)nc2sc3c(c12)CCC3`, the IC90 was above 10 µM. Moreover, the IC50 (FFLUC_HILL_SLOPE 0.459, FFLUC_R_SQUARED 0.138, read-out: LUCIFERASE INFECTION ASSAY - IC50) was above 10 µM.
Take `CC(C)(C)c1ccc(OC(=O)Nc2ccc(Cl)c(Cl)c2)c(C(C)(C)C)c1`: the IC90 was above 8.37 µM. Further, for the setting “FFLUC_HILL_SLOPE 3, FFLUC_R_SQUARED 0.639, PBLUC_HILL_SLOPE 0.845, PBLUC_R_SQUARED 0.14, read-out: LUCIFERASE INFECTION ASSAY - IC50”, the IC50 is above 8.37 µM.
On to `Cc1cc(C(=O)COc2ccc(CC(=O)O)cc2)c(C)n1CCC(C)C`, for which the IC90 was 7.13 µM. Further, under “PBLUC_HILL_SLOPE 4.94, 3.04, PBLUC_R_SQUARED 0.440, 0.373, read-out: LUCIFERASE INFECTION ASSAY - IC50”, the IC50 is 5.4 µM.
Regarding `CCOC(=O)c1c(C)nn(-c2ncccc2NC(=O)Nc2cccc(Cl)c2Cl)c1C`, the IC90 was above 7.36 µM. Besides, under “HEPG2TOX_HILL_SLOPE 1.28, HEPG2TOX_R_SQUARED 0.665, PBLUC_HILL_SLOPE 11.5, PBLUC_R_SQUARED 0.0917, read-out: LUCIFERASE INFECTION ASSAY - IC50”, the IC50 stood at 6.84 µM.
Consider `Cn1ccc2cc(-c3cn4c(-c5cccc(O)c5)cnc4cn3)ccc21`, for which the IC90 was 3.11 µM. Moreover, under “HEPG2TOX_HILL_SLOPE 1.21, HEPG2TOX_R_SQUARED 0.948, PBLUC_HILL_SLOPE 1.63, PBLUC_R_SQUARED 0.761, read-out: LUCIFERASE INFECTION ASSAY - IC50”, the IC50 amounted to 0.805 µM.
As for `Cc1nc2ccccn2c1-c1nc(CCC2CCCCC2)c(C(=O)c2c(C)[nH]c3ccccc23)s1`, the IC90 is above 10 µM. Besides, the IC50 (PBLUC_HILL_SLOPE 8.8, PBLUC_R_SQUARED 0.142, read-out: LUCIFERASE INFECTION ASSAY - IC50) came to 8.77 µM.
